Results from US20150183822A1, “ANGIOTENSIN-CONVERTING-ENZYME INHIBITING DIPEPTIDE” (YAMAKI Co., Ltd., priority 2012, published 2015).
Where two headings read alike, the source gives them in different places. Where a SMILES comes first, the peptide text is derived from it.

Molecular target: T1, angiotensin converting enzyme (ACE) (Oryctolagus cuniculus, UniProt P12822)
T1 construct: resulting supernatant was purified with hydroxyapatite to obtain 1 unit/mg protein of angiotensin converting enzyme liquid; tissue Sigma Co., Ltd. (alternative source); host or cells: rabbit lung (acetone powder extract purified with hydroxyapatite)
T1 sequence (P12822 34-1310): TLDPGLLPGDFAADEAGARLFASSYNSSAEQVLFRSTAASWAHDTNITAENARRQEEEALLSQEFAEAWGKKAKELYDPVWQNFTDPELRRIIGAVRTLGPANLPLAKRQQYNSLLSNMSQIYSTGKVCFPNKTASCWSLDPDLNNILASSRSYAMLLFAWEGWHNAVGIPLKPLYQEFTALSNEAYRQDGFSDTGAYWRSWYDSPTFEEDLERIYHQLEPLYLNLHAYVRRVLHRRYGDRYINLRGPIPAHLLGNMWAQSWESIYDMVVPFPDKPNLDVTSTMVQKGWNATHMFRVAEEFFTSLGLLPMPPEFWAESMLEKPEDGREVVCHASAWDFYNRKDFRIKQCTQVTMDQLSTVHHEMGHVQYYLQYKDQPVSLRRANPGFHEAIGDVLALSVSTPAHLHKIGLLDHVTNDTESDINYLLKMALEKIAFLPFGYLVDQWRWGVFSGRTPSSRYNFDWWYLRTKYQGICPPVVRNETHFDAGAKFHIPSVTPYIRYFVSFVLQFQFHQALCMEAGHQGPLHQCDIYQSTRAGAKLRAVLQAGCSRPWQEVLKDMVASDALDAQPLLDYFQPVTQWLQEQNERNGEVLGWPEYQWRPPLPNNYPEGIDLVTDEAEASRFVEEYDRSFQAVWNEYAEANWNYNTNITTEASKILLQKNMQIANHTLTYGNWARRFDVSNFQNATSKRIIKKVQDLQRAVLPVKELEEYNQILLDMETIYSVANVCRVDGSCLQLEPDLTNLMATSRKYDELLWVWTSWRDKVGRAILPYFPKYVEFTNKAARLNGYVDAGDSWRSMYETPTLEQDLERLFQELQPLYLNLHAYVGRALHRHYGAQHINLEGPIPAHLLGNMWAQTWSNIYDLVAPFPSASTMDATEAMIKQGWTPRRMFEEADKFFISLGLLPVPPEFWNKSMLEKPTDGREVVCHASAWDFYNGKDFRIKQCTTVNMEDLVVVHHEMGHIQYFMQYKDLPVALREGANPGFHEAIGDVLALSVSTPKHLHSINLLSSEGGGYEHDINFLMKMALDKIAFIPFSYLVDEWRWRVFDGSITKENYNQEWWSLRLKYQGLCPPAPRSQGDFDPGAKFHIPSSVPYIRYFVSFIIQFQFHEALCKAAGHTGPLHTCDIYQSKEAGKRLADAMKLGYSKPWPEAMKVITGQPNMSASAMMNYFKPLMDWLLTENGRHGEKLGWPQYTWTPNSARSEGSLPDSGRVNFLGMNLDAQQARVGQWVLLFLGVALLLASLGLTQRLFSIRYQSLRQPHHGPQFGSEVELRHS
Assay: ACE inhibitory activity (Test Example 1, Cheung and Cushman's method, hippuryl histidyl leucine substrate)
Assay type: biochemical, rabbit
Conditions: for The contribution rate in KATSUOBUSHI peptide: contribution of each dipeptide in KATSUOBUSHI peptide; for ACE inhibitory activity value, comparison in words: comparison among dipeptides of Table 30
Procedure: ACE inhibitory activity was measured as below.
5 g of rabbit lung acetone powder was dissolved in 50 mL of 0.1M sodium borate buffer (pH8.3), centrifuged under the condition of 40000G and for 40 minutes and resulting supernatant was purified with hydroxyapatite to obtain 1 unit/mg protein of angiotensin converting enzyme liquid. Purified ACE derived from rabbit lung (Sigma Co., Ltd., 0.25 unit), alternatively, was used.
0.030 mL of the various concentrations of the dipeptide composition solutions were taken into test tubes, respectively, and then, 0.1 mL of the angiotensin converting enzyme liquid as above was added into the test tubes to react with the composition at 37° C. for 5 minutes. Subsequently, 0.25 mL of hippuryl histidyl leucine (PEPTIDE Lab., Bz-Gly-His-Leu.H2O, the final concentration of 5 mM, including 300 mM of NaCl) as a substrate was added to the test tubes to react with the enzyme at 37° C. for 30 minutes. 0.25 mL of 1N hydrochloric acid, then, was added to the test tube to terminate the reaction, 1.5 mL of ethyl acetate was added to the test tube and stirred with the vortex mixer for 20 seconds, followed by centrifuging (3000 rotations, for 5 minutes) and 1 mL of ethyl acetate layer was isolated.
The inhibitory rate was calculated according to the following formula.
The inhibitory=[1−(A−a)/(B−b)]×100

[1] = isolated peptides, Table 11, read-out: ACE inhibitory activity (IC50: μM)
[2] = Table 30, dipeptides of the invention and other dipeptides, read-out: ACE inhibitory value IC50
[3] = isolated peptides, Table 10, read-out: ACE inhibitory activity (IC50: μM)
[4] = isolated peptides, Table 9, read-out: ACE inhibitory activity (IC50: μM)

## C[C@H](N)C(=O)N[C@@H](Cc1c[nH]c2ccccc12)C(=O)O [Alanine-tryptophan, alanine-tryptophan] (H-Ala-Trp-OH; N-terminus and C-terminus assumed)
  contribution rate in KATSUOBUSHI peptide, in words: high
  The contribution rate in KATSUOBUSHI peptide: 0.672%
[1]
  IC50: 10 µM

## NC(=O)C[C@H](N)C(=O)N[C@@H](Cc1c[nH]c2ccccc12)C(=O)O [Asparagine-tryptophan, asparagine-tryptophan] (H-Asn-Trp-OH; N-terminus and C-terminus assumed)
  The contribution rate in KATSUOBUSHI peptide: 0.099%

## NC(=O)CC[C@H](N)C(=O)N[C@@H](Cc1c[nH]c2ccccc12)C(=O)O [Glutamine-tryptophan, glutamine-tryptophan] (H-Gln-Trp-OH; N-terminus and C-terminus assumed)
  The contribution rate in KATSUOBUSHI peptide: 0.048%
[1]
  IC50: 32.6 µM

## NCC(=O)N[C@@H](Cc1c[nH]c2ccccc12)C(=O)O [Glycine-tryptophan, glycine-tryptophan] (H-Gly-Trp-OH)
  The contribution rate in KATSUOBUSHI peptide: 0.366%
[1]
  IC50: 30 µM

## CC[C@H](C)[C@H](N)C(=O)N[C@@H](Cc1ccccc1)C(=O)O [Isoleucine-phenylalanine, reference compound] (H-Ile-Phe-OH; N-terminus and C-terminus assumed)
[2]
  IC50: 930 µM

## CC[C@H](C)[C@H](N)C(=O)N[C@@H](Cc1c[nH]c2ccccc12)C(=O)O [Isoleucine-tryptophan, isoleucine-tryptophan]
  contribution rate in KATSUOBUSHI peptide, in words: high
  ACE inhibitory activity value, comparison in words: much higher value than the other dipeptides
  The contribution rate in KATSUOBUSHI peptide: 2.040%
[3]
  IC50: 2 µM

## CC(C)C[C@H](N)C(=O)N[C@@H](Cc1c[nH]c2ccccc12)C(=O)O [Leucine-tryptophan, leucine-tryptophan]
[4]
  IC50: 23 µM

## CSCC[C@H](N)C(=O)N[C@@H](Cc1c[nH]c2ccccc12)C(=O)O [Methionine-tryptophan, methionine-tryptophan] (H-Met-Trp-OH; N-terminus and C-terminus assumed)
  ACE inhibitory activity value, comparison in words: much higher value than the other dipeptides
  The contribution rate in KATSUOBUSHI peptide: 0.343%
[3]
  IC50: 3.8 µM

## N[C@@H](CO)C(=O)N[C@@H](Cc1c[nH]c2ccccc12)C(=O)O [Serine-tryptophan, serine-tryptophan] (H-Ser-Trp-OH; N-terminus and C-terminus assumed)
  The contribution rate in KATSUOBUSHI peptide: 0.099%
[1]
  IC50: 22.1 µM

## NC(=O)C[C@H](NC(=O)[C@@H](N)Cc1c[nH]c2ccccc12)C(=O)O [Tryptophan-asparagine, tryptophan-asparagine] (H-Trp-Asn-OH; N-terminus and C-terminus assumed)
[4]
  IC50: 580 µM

## CC[C@H](C)[C@H](NC(=O)[C@@H](N)Cc1c[nH]c2ccccc12)C(=O)O [Tryptophan-isoleucine, tryptophan-isoleucine] (H-Trp-Ile-OH; N-terminus and C-terminus assumed)
[4]
  IC50: 33.1 µM

## CC(C)C[C@H](NC(=O)[C@@H](N)Cc1c[nH]c2ccccc12)C(=O)O [Tryptophan-leucine, tryptophan-leucine] (H-Trp-Leu-OH; N-terminus and C-terminus assumed)
[4]
  IC50: 25.1 µM

## CSCC[C@H](NC(=O)[C@@H](N)Cc1c[nH]c2ccccc12)C(=O)O [Tryptophan-methionine, tryptophan-methionine] (H-Trp-Met-OH)
  The contribution rate in KATSUOBUSHI peptide: 0.054%
[3]
  IC50: 36.5 µM

## N[C@@H](Cc1c[nH]c2ccccc12)C(=O)N[C@@H](Cc1ccc(O)cc1)C(=O)O [Tryptophan-tyrosine, tryptophan-tyrosine] (H-Trp-Tyr-OH; N-terminus and C-terminus assumed)
  The contribution rate in KATSUOBUSHI peptide: 0.021%
[3]
  IC50: 57 µM

## CC(C)[C@H](N)C(=O)N1CCC[C@H]1C(=O)O [Valine-proline, reference compound] (H-Val-Pro-OH)
[2]
  IC50: 420 µM

## CC(C)[C@H](N)C(=O)N[C@@H](Cc1c[nH]c2ccccc12)C(=O)O [Valine-tryptophan, valine-tryptophan] (H-Val-Trp-OH)
  contribution rate in KATSUOBUSHI peptide, in words: high
  ACE inhibitory activity value, comparison in words: much higher value than the other dipeptides
  The contribution rate in KATSUOBUSHI peptide: 4.031%

## CC(C)[C@H](N)C(=O)N[C@@H](Cc1ccc(O)cc1)C(=O)O [Valine-tyrosine, valine-tyrosine] (H-Val-Tyr-OH; N-terminus and C-terminus assumed)
[4]
  IC50: 11 µM
